Test results published in patent publication US11613546B2, “Substituted pyridotriazine compounds and uses thereof” (Gilead Sciences, Inc., priority 2021, dated 2023).
Like-named read-outs stand apart in the source and are kept apart here.

Tests used:
HIV-1 (IIIB) = assay: Antiviral assay in MT-4 cells; format: cell-based; conditions: HIV-1 IIIB infected MT-4 cells, 5 days, Cell Titer Glo, read-out: MT4 EC50
In short: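 MT-4 cells infected with a 1:250 dilution of HIV-1 IIIB stock were incubated with serially diluted (1:3) compound for 5 days at 37 °C. Viability read by Cell Titer Glo luminescence; EC50 is the concentration giving 50% decrease in signal, from sigmoidal dose-response fits.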

[1] = Cytotoxicity assay in MT-4 cells; format: cell-based; conditions: human, uninfected MT-4 cells, 5 days, Cell Titer Glo; read-out: CC50
In short: (§1)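 Uninfected MT-4 cells were incubated with 1:3 serially diluted compound in RPMI/10% FBS for 5 days at 37° C. Viability was read by CellTiter-Glo luminescence, with 10 μM puromycin as the baseline cytotoxicity control. Values are the concentration giving a 50% decrease in luminescence, from sigmoidal dose-response fits.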

pLai RLuc reporter virus = assay: HIV MT-4 serum shift antiviral reporter assay; format: cell-based
In short: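 MT-4 cells pre-infected with pLai RLuc virus for 2 h at 37 °C, then incubated 72 h at 37 °C with compound in medium (RPMI, 10% FBS) with or without 50% human serum; Renilla luminescence read. EC50 from sigmoidal fit; serum shift = EC50(HS/CCM)/EC50(CCM).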

[2] = Monkey PK after single-dose intravenous infusion; format: in vivo, monkeys; conditions: cynomolgus, monkeys, single-dose intravenous infusion for 30 minutes, plasma, read-out: Cyno half-life (converted)
Protocol: Test compound PK was determined in monkeys (Labcorp, Madison, Wis.) following a single-dose intravenous infusion for 30 minutes. The dosing vehicle was 10% N-methylpyrrolidone; 50% polyethylene glycol 300 and 40% water (pH 8.3) for intravenous administration in monkeys. Serial blood samples were collected at predose, 0.25, 0.48 (before end of infusion), 0.58, 0.75, 1, 1.5, 2, 4, 8, 12, 24, 48, 72, 96, 120, 144, and 168 hours postdose (based on start of infusion) and plasma test compound concentrations were quantified using an LC-MS/MS method.
Nonclinical plasma samples were prepared by addition of 200 μl cold acetonitrile/internal standard solution to 96-well plates containing 50 μl aliquots of each plasma sample. After protein precipitation, each of the supernatants (50 μl) were transferred to clean 96-well plates and diluted with 450 μl of water. The sample injection volume was 2 μl. Samples were analyzed by a multiple reaction monitoring LC-MS/MS method. LC-MS system consisted of a Cohesive LX-2 multiplex with two identical DIONEX UltiMate 3000 RS pumps, Hypersil Gold C18 HPLC column (50×2.1 mm, […]; Thermo Fisher Scientific), and the ABSciex QTRAP5500 Mass Spectrometer LC-MS/MS system. Chromatography was performed using 0.1% formic acid and 1% isopropyl alcohol in aqueous solution (MP A), and 0.1% formic acid and 1% isopropyl alcohol in acetonitrile (MP B).
Plasma PK parameters for test compounds in monkeys were estimated via noncompartmental analysis using the software program Phoenix WinNonlin, version 6.3 (Pharsight Corporation, Mountain View, Calif.). The following plasma PK parameters were estimated in nonclinical species (as appropriate): observed peak plasma concentration (Cmax), time to reach Cmax (Tmax), last quantifiable plasma concentration (Clast), tin, time of Clast (Tlast), area under the plasma concentration-time curve (AUC) from time 0 to Clast (AUClast), AUC from time 0 to infinity (AUCinf), CL, mean residence time (MRT), and volume of distribution at steady state (Vss).

MT-4 cells = assay: Cytotoxicity assay in MT-4 cells; format: cell-based
In short: as §1

[3] = Human immunodeficiency virus 1, IIIB, MT4, 120 h
[4] = Human immunodeficiency virus 1, 72 h, read-out: RLUC 50% HS (nM), HS/CCM: 50% human serum, 72 h, Renilla Glo
[5] = Human immunodeficiency virus 1, 72 h, read-out: RLUC CCM (nM), cell culture media (RPMI, 10% FBS), 72 h, Renilla Glo
[6] = read-out: RLUC 50% HS, HS/CCM: 50% human serum, 72 h, Renilla Glo
[7] = uninfected MT-4 cells, 5 days, Cell Titer Glo, read-out: CC50
[8] = HS/CCM: 50% human serum, 72 h, Renilla Glo, read-out: RLUC 50% HS
[9] = cell culture media (RPMI, 10% FBS), 72 h, Renilla Glo, read-out: RLUC CCM

Row | Structure (SMILES) | EC50 (HIV-1 (IIIB); [3]) | CC50 at 5 days [1] | EC50 (pLai RLuc reporter virus; [4]) | EC50 (pLai RLuc reporter virus; [5]) | half-life [2] | EC50 (HIV-1 (IIIB)) | CC50 (MT-4 cells; [7]) | EC50 (pLai RLuc reporter virus; [8]) | EC50 (pLai RLuc reporter virus; [9]) | also measured
1 | C[C@H]1C=C[C@@H](CF)N2CN1C(=O)c1c(O)c(=O)c(C(=O)NCc3c(F)cc(F)cc3F)cn12 [Example C76, (1S,2S,5S)-2-(fluoromethyl)-8-hydroxy-5-methyl-7,9-dioxo-N-(2,4,6-trifluorobenzyl)-2,5,7,9-tetrahydro-1,6-methanopyrido[1,2-b][1,2,5]triazonine-10-carboxamide] | 1 nM | 16400 nM | 265 nM | 0.42 nM | 60 h |  |  |  |  | 
2 | C[C@H]1CC[C@H](C)N2CN1C(=O)c1c(O)c(=O)c(C(=O)NCc3ccc(F)cc3F)cn12 [Example C31, (1S,2S,5S)—N-(2,4-difluorobenzyl)-8-hydroxy-2,5-dimethyl-7,9-dioxo-2,3,4,5,7,9-hexahydro-1,6-methanopyrido[1,2-b][1,2,5]triazonine-10-carboxamide] | 0.9 nM | 7850 nM | 328 nM | 0.41 nM | 9 h |  |  |  |  | 
3 | C[C@H]1C=C[C@@H](CF)N2CN1C(=O)c1c(O)c(=O)c(C(=O)NCc3ccc(F)cc3F)cn12 [Example C44, (2S,5S)—N-(2,4-difluorobenzyl)-2-(fluoromethyl)-8-hydroxy-5-methyl-7,9-dioxo-2,5,7,9-tetrahydro-1,6-methanopyrido[1,2-b][1,2,5]triazonine-10-carboxamide] | 1.2 nM | 15000 nM |  |  | 29 h |  |  |  |  | 
4 | C[C@@H]1C=C[C@H](C)N2CN1n1cc(C(=O)NCc3c(F)cc(F)cc3F)c(=O)c(O)c1C2=O [Example C24, (1S,2R,5S)-8-hydroxy-2,5-dimethyl-7,9-dioxo-N-(2,4,6-trifluorobenzyl)-2,5,7,9-tetrahydro-1,6-methanopyrido[1,2-b][1,2,5]triazonine-10-carboxamide] | 0.98 nM | 11400 nM | 328 nM | 0.44 nM | 57 h |  |  |  |  | 
5 | CC[C@@H]1C=C[C@H](C)N2CN1n1cc(C(=O)NCc3c(F)cc(F)cc3F)c(=O)c(O)c1C2=O [Example C72, (1S,2R,5S)-2-ethyl-8-hydroxy-5-methyl-7,9-dioxo-N-(2,4,6-trifluorobenzyl)-2,5,7,9-tetrahydro-1,6-methanopyrido[1,2-b][1,2,5]triazonine-10-carboxamide] | 0.5 nM | 13800 nM | 251 nM | 0.33 nM | 51 h |  |  |  |  | 
6 | C[C@@H]1C=C[C@H](C)N2CN1n1cc(C(=O)NCc3ccc(F)cc3F)c(=O)c(O)c1C2=O [Example C29, (1S,2R,5S)—N-(2,4-difluorobenzyl)-8-hydroxy-2,5-dimethyl-7,9-dioxo-2,5,7,9-tetrahydro-1,6-methanopyrido[1,2-b][1,2,5]triazonine-10-carboxamide] | 0.71 nM | 18700 nM | 169 nM | 0.31 nM | 32 h |  |  |  |  | 
7 | C[C@H]1C=C[C@H](C)N2CN1C(=O)c1c(O)c(=O)c(C(=O)NCc3c(F)cc(F)cc3F)cn12 [Example C25, (1S,2S,5S)-8-hydroxy-2,5-dimethyl-7,9-dioxo-N-(2,4,6-trifluorobenzyl)-2,5,7,9-tetrahydro-1,6-methanopyrido[1,2-b][1,2,5]triazonine-10-carboxamide] |  | 17400 nM |  | 0.47 nM | 55 h | 1 nM |  |  |  | EC50 (pLai RLuc reporter virus; [6]): 68 nM
8 | C[C@@H]1CC[C@H](CF)N2CN1n1cc(C(=O)NCc3ccc(F)cc3F)c(=O)c(O)c1C2=O [Example C49b, (1S,10R,13R)—N-[(2,4-difluorophenyl)methyl]-10-(fluoromethyl)-6-hydroxy-13-methyl-5,8-dioxo-1,2,9-triazatricyclo[7.4.1.02,7]tetradeca-3,6-diene-4-carboxamide] |  |  |  |  |  | 1.9 nM | 8930 nM | 462 nM | 1 nM | 
9 | C[C@@H]1C/C=C\CN2CN1n1cc(C(=O)NCc3ccc(F)cc3F)c(=O)c(O)c1C2=O [Example C10, (1R,2R,Z)—N-(2,4-difluorobenzyl)-9-hydroxy-2-methyl-8,10-dioxo-3,6,8,10-tetrahydro-2H-1,7-methanopyrido[1,2-b][1,2,5]triazecine-11-carboxamide] |  |  |  |  |  | 1.8 nM | 7570 nM | 339 nM | 0.4 nM | 
10 | C[C@H]1CCC(C)(C)N2CN1n1cc(C(=O)NCc3ccc(F)cc3F)c(=O)c(O)c1C2=O [Example C95, (1S,2S)—N-(2,4-difluorobenzyl)-8-hydroxy-2,5,5-trimethyl-7,9-dioxo-2,3,4,5,7,9-hexahydro-1,6-methanopyrido[1,2-b][1,2,5]triazonine-10-carboxamide] | 12.3 nM |  | 461 nM | 2.52 nM |  |  | 50000 nM |  |  | 
11 | C[C@@H]1C/C=C\CN2CN1n1cc(C(=O)NCc3ccc(F)cc3F)c(=O)c(O)c1C2=O [Example C11, (1S,2R,Z)—N-(2,4-difluorobenzyl)-9-hydroxy-2-methyl-8,10-dioxo-3,6,8,10-tetrahydro-2H-1,7-methanopyrido[1,2-b][1,2,5]triazecine-11-carboxamide] |  |  |  |  |  | 1.1 nM | 9930 nM | 7.32 nM | 0.27 nM | 
12 | C[C@@H]1C=C[C@@H](C)N2CN1C(=O)c1c(O)c(=O)c(C(=O)NCc3ccc(F)cc3F)cn12 [Example C69, (1S,2R,5R)—N-(2,4-difluorobenzyl)-8-hydroxy-2,5-dimethyl-7,9-dioxo-2,5,7,9-tetrahydro-1,6-methanopyrido[1,2-b][1,2,5]triazonine-10-carboxamide] |  |  |  |  |  | 1.5 nM | 38900 nM |  |  | EC50 (pLai RLuc reporter virus; [6]): 146 nM; EC50 (pLai RLuc reporter virus; read-out: RLUC CCM, cell culture media (RPMI, 10% FBS), 72 h, Renilla Glo): 0.55 nM
13 | C[C@@H]1CC[C@H](CF)N2CN1n1cc(C(=O)NCc3c(F)cc(F)cc3F)c(=O)c(O)c1C2=O [Example C51, (1S,2R,5R)-5-(fluoromethyl)-8-hydroxy-2-methyl-7,9-dioxo-N-(2,4,6-trifluorobenzyl)-2,3,4,5,7,9-hexahydro-1,6-methanopyrido[1,2-b][1,2,5]triazonine-10-carboxamide] |  |  |  |  |  | 1.3 nM |  | 408 nM | 2.3 nM | CC50 (MT-4 cells): 9810 nM
14 | C[C@H]1C=C[C@]2(CCOC2)N2CN1C(=O)c1c(O)c(=O)c(C(=O)NCc3c(F)cc(F)cc3F)cn12 [Example C84, (1′S,3S,5′S)-8′-hydroxy-5′-methyl-7′,9′-dioxo-N-(2,4,6-trifluorobenzyl)-4,5,7′,9′-tetrahydro-2H,5′H-spiro[furan-3,2′-[1,6]methanopyrido[1,2-b][1,2,5]triazonine]-10′-carboxamide] |  |  |  |  |  | 0.6 nM | 20500 nM | 24.9 nM | 0.26 nM | 
15 | C[C@H]1CCCCN2CN1n1cc(C(=O)NCc3ccc(F)cc3F)c(=O)c(O)c1C2=O [Example C40, (1S,2S)—N-(2,4-difluorobenzyl)-9-hydroxy-2-methyl-8,10-dioxo-3,4,5,6,8,10-hexahydro-2H-1,7-methanopyrido[1,2-b][1,2,5]triazecine-11-carboxamide] |  |  |  |  |  | 2.1 nM | 16000 nM | 139 nM | 1.3 nM | 
16 | C[C@@H]1C=C[C@H](C)N2CN1n1cc(C(=O)NCc3ccc(F)c(Cl)c3F)c(=O)c(O)c1C2=O [Example C63, (1S,2R,5S)—N-(3-chloro-2,4-difluorobenzyl)-8-hydroxy-2,5-dimethyl-7,9-dioxo-2,5,7,9-tetrahydro-1,6-methanopyrido[1,2-b][1,2,5]triazonine-10-carboxamide] |  |  |  |  | 110 h |  |  |  |  | 
